These compounds were tested on Utrophin A promoter linked to a luciferase reporter gene (H2K/mdx/Utro A reporter cell line) (assay: Luciferase reporter assay (murine H2K cells)). Conditions: Mus musculus; final concentration of 10 μM; incubated for a further 48 hrs.
Type: cell-based
Protocol: The cell line used for the screen is an immortalized mdx mouse H2K cell line that has been stably transfected with a plasmid containing ≈5 kb fragment of the Utrophin A promoter including the first untranslated […] linked to a luciferase reporter gene.
Under conditions of low temperature and interferon containing media, the cells remain as myoblasts. These are plated into 96 well plates and cultured in the presence of compound for three days. The level of luciferase is then determined by cell lysis and reading of the light output from the expressed luciferase gene utilising a plate luminometer.
The H2K/mdx/Utro A reporter cell line was passaged twice a week until ≦30% confluent. The cells were grown at 33° C. in the presence of 10% CO2
To remove the myoblasts for platting, they were incubated with Trypsin/EDTA until the monolayer started to detach.
• DMEM Gibco 41966 • 20% FCS • 1% Pen/Strep • 1% glutamine • 10 mls Chick embryo extract • Interferon(1276 905 Roche) Add fresh 10 μl/50 mls medium
The H2K/mdx/Utro A reporter cell line cells were plated out into 96 well plates (Falcon 353296, white opaque) at a density of approximately 5000 cells/well in 190 μl normal growth medium. The plates were then incubated at 33° C. in the presence of 10% CO2 for 24 hrs.
Compounds were dosed by adding 10 μl of diluted compound to each well giving a final concentration of 10 μM. The plates were then incubated for a further 48 hrs
Cells were then lysed in situ following the manufacture's protocols (Promega Steady-Glo Luciferase Assay System (E2520). Then counted for 10 seconds using a plate luminometer (Victor1420).

| Compound | activity at 10 µM [%] |
| --- | --- |
| CCCC(=O)Nc1ccc2nn(-c3ccc(N(CC)CC)cc3)nc2c1 [Example 24, N-(2-(4-(diethylamino)phenyl)-2H-benzo[d][1,2,3]triazol-5-yl)butyramide] | < 200 |
| CC(C)S(=O)(=O)c1ccc2cn(-c3ccc(Cl)cc3)nc2c1 [Example 56, 2-(4′-Chlorophenyl)-6-(isopropylsulfonyl)-2H-indazole] | > 401 |
| CCC(=O)Nc1cc2nn(-c3ccc(N(CC)CC)cc3)nc2cc1C [Example 14, N-(2-(4-(diethylamino)phenyl)-6-methyl-2H-benzo[d][1,2,3]triazol-5-yl)propionamide] | < 200 |
| CCN(CC)c1ccc(-n2nc3ccc(NC(=O)c4ccncc4)cc3n2)cc1 [Example 21, N-(2-(4-(diethylamino)phenyl)-2H-benzo[d][1,2,3]triazol-5-yl)isonicotinamide] | < 200 |
| CS(=O)(=O)c1ccc2nn(-c3ccc4ccccc4c3)nc2c1 [Example 55, 5-(Methylsulfonyl)-2-(naphthalen-2-yl)-2H-benzo[d][1,2,3]triazole] | > 401 |
| Cc1cc2nn(-c3ccc(Cl)cc3)nc2cc1N [Example 43, 2-(4-chlorophenyl)-6-methyl-2H-benzo[d][1,2,3]triazol-5-amine] | > 401 |
| CS(=O)(=O)c1ccc2nn(-c3ccc(Cl)cc3)[n+]([O-])c2c1 [Example 47, 2-(4-chlorophenyl)-6-(methylsulfonyl)-2H-benzo[d][1,2,3]triazole 1-oxide] | < 200 |
| CN(C)c1ccc(-n2nc3ccc(N)cc3n2)cc1 [Example 41, 2-(4-(dimethylamino)phenyl)-2H-benzo[d][1,2,3]triazol-5-amine] | 301 to 400 |
| CC(=O)Nc1ccc2nn(-c3ccc(F)cc3)nc2c1 [Example 69, N-(2-(4-fluorophenyl)-2H-benzo[d][1,2,3]triazol-5-yl)acetamide] | 201 to 300 |
| CCN(CC)c1ccc(-n2nc3ccc(NC(=O)c4ccc(OC)cc4)cc3n2)cc1 [Example 30, N-(2-(4-(diethylamino)phenyl)-2H-benzo[d][1,2,3]triazol-5-yl)-4-methoxybenzamide] | < 200 |
| CCN(CC)c1ccc(-n2nc3ccc(NC(=O)c4cccs4)cc3n2)cc1 [Example 28, N-(2-(4-(diethylamino)phenyl)-2H-benzo[d][1,2,3]triazol-5-yl)thiophene-2-carboxamide] | < 200 |
| O=[N+]([O-])c1ccc2cn(-c3ccc(Cl)cc3)nc2c1 [Example 45, 2-(4-chlorophenyl)-6-nitro-2H-indazole] | < 200 |
| CC(C)C(=O)Nc1ccc2cn(-c3ccc(Cl)cc3)nc2c1 [Example 46, N-(2-(4-chlorophenyl)-2H-indazol-6-yl)isobutyramide] | > 401 |
| Nc1ccc2nn(-c3ccc(Cl)cc3)nc2c1 [Example 38, 2-(4-chlorophenyl)-2H-benzo[d][1,2,3]triazol-5-amine] | < 200 |
| Cc1cc2nn(-c3ccc(Cl)cc3)nc2cc1NC(=O)c1cccs1 [Example 6, N-(2-(4-chlorophenyl)-6-methyl-2H-benzo[d][1,2,3]triazol-5-yl)thiophene-2-carboxamide] | 301 to 400 |
| CCN(CC)c1ccc(-n2nc3ccc(N)cc3n2)cc1 [Example 19, 2-(4-(diethylamino)phenyl)-2H-benzo[d][1,2,3]triazol-5-amine] | 301 to 400 |
| CCN(CC)c1ccc(-n2nc3cc(C)c(NC(=O)c4ccco4)cc3n2)cc1 [Example 18, N-(2-(4-(diethylamino)phenyl)-6-methyl-2H-benzo[d][1,2,3]triazol-5-yl)furan-2-carboxamide] | < 200 |
| CS(=O)(=O)c1ccc2nn(-c3ccc(Cl)c(Cl)c3)nc2c1 [Example 50, 2-(3,4-dichlorophenyl)-5-(methylsulfonyl)-2H-benzo[d][1,2,3]triazole] | 201 to 300 |
| Cc1cc2nn(-c3ccc(N4CCOCC4)cc3)nc2cc1N [Example 34, 6-methyl-2-(4-morpholinophenyl)-2H-benzo[d][1,2,3]triazol-5-amine] | 201 to 300 |
| CS(=O)(=O)c1ccc2nn(-c3ccc4ccccc4c3)[n+]([O-])c2c1 [Example 54, 6-(Methylsulfonyl)-2-(naphthalen-2-yl)-2H-benzo[d][1,2,3]triazole 1-oxide] | 201 to 300 |
| Cc1cc2nn(-c3ccc(Cl)cc3)nc2cc1NC(=O)C(C)C [Example 10, N-(2-(4-chlorophenyl)-6-methyl-2H-benzo[d][1,2,3]triazol-5-yl)isobutyramide] | 201 to 300 |

| Compound | activity at 10 µM [%] |
| --- | --- |
| Nc1ccc2nn(-c3ccc(N4CCCCC4)cc3)nc2c1 [Example 40, 2-(4-(piperidin-1-yl)phenyl)-2H-benzo[d][1,2,3]triazol-5-amine] | 201 to 300 |
| CCN(CC)c1ccc(-n2nc3cc(C)c(NC(=O)c4cccnc4)cc3n2)cc1 [Example 12, N-(2-(4-(diethylamino)phenyl)-6-methyl-2H-benzo[d][1,2,3]triazol-5-yl)nicotinamide] | 301 to 400 |
| CCOc1ccc(-n2nc3cc(C)c(N)cc3n2)cc1 [Example 64, 2-(4-ethoxyphenyl)-6-methyl-2H-benzo[d][1,2,3]triazol-5-amine] | 201 to 300 |
| CCCCC(=O)Nc1cc2nn(-c3ccc(Cl)cc3)nc2cc1C [Example 9, N-(2-(4-chlorophenyl)-6-methyl-2H-benzo[d][1,2,3]triazol-5-yl)pentanamide] | 201 to 300 |
| COc1ccccc1C(=O)Nc1cc2nn(-c3ccc(Cl)cc3)nc2cc1C [Example 5, N-(2-(4-chlorophenyl)-6-methyl-2H-benzo[d][1,2,3]triazol-5-yl)-2-methoxybenzamide] | < 200 |
| COc1ccc(C(=O)Nc2cc3nn(-c4ccc(Cl)cc4)nc3cc2C)cc1 [Example 4, N-(2-(4-chlorophenyl)-6-methyl-2H-benzo[d][1,2,3]triazol-5-yl)-4-methoxybenzamide] | 201 to 300 |
| CCC(=O)Nc1ccc2nn(-c3ccc(N(CC)CC)cc3)nc2c1 [Example 23, N-(2-(4-(diethylamino)phenyl)-2H-benzo[d][1,2,3]triazol-5-yl)propionamide] | < 200 |
| CS(=O)(=O)c1ccc2cn(-c3ccc(Cl)cc3)nc2c1 [Example 44, 2-(4-chlorophenyl)-6-(methylsulfonyl)-2H-indazole] | 201 to 300 |
| Cc1cc2nn(-c3ccc(Cl)cc3)nc2cc1NC(=O)c1cccnc1 [Example 1, N-(2-(4-chlorophenyl)-6-methyl-2H-benzo[d][1,2,3]triazol-5-yl)nicotinamide] | 301 to 400 |
| CCN(CC)c1ccc(-n2nc3ccc(NC(=O)c4ccc(N(C)C)cc4)cc3n2)cc1 [Example 33, N-(2-(4-(diethylamino)phenyl)-2H-benzo[d][1,2,3]triazol-5-yl)-4-(dimethylamino)benzamide] | < 200 |
| CCCC(=O)Nc1ccc2nn(-c3ccc(Cl)cc3)nc2c1 [Example 36, N-(2-(4-chlorophenyl)-2H-benzo[d][1,2,3]triazol-5-yl)butyramide] | 301 to 400 |
| CCCCC(=O)Nc1ccc2nn(-c3ccc(N(CC)CC)cc3)nc2c1 [Example 25, N-(2-(4-(diethylamino)phenyl)-2H-benzo[d][1,2,3]triazol-5-yl)pentanamide] | < 200 |
| CCS(=O)(=O)c1ccc2nn(-c3ccc(Cl)cc3)nc2c1 [Example 52, 2-(4′-chlorophenyl)-5-(ethylsulfonyl)-benzotriazole] | > 401 |
| CCN(CC)c1ccc(-n2nc3ccc(NC(C)=O)cc3n2)cc1 [Example 22, N-(2-(4-(diethylamino)phenyl)-2H-benzo[d][1,2,3]triazol-5-yl)acetamide] | 201 to 300 |
| Cc1ccc(-n2nc3ccc(N)cc3n2)cc1C [Example 63, 2-(3,4-dimethylphenyl)-2H-benzo[d][1,2,3]triazol-5-amine] | < 200 |
| CCN(CC)c1ccc(-n2nc3ccc(NC(=O)c4ccc(Cl)cc4)cc3n2)cc1 [Example 32, 4-chloro-N-(2-(4-(diethylamino)phenyl)-2H-benzo[d][1,2,3]triazol-5-yl)benzamide] | < 200 |
| Clc1ccc(-n2cc3ccccc3n2)cc1 [Example 48, 2-(4-chlorophenyl)-2H-indazole] | > 401 |
| CC(C)C(=O)Nc1ccc2nn(-c3ccc(Cl)c(Cl)c3)nc2c1 [Example 53, N-(2-(3,4-Dichlorophenyl)-2H-benzo[d][1,2,3]triazol-5-yl)isobutyramide] | > 401 |
| CCCCC(=O)Nc1cc2nn(-c3ccc(N(CC)CC)cc3)nc2cc1C [Example 16, N-(2-(4-(diethylamino)phenyl)-6-methyl-2H-benzo[d][1,2,3]triazol-5-yl)pentanamide] | < 200 |
| CCN(CC)c1ccc(-n2nc3cc(C)c(NC(=O)C(C)C)cc3n2)cc1 [Example 17, N-(2-(4-(diethylamino)phenyl)-6-methyl-2H-benzo[d][1,2,3]triazol-5-yl)isobutyramide] | < 200 |
| CCc1ccc(-n2nc3ccc(N)cc3n2)cc1 [Example 68, 2-(4-ethylphenyl)-2H-benzo[d][1,2,3]triazol-5-amine] | 201 to 300 |

From patent US20100168072A1, “Drug Combinations for the Treatment of Duchenne Muscular Dystrophy” (BIOMARIN IGA LIMITED, priority 2007, published 2010)
